Measured values: paper PMC9142922, “Galactosylated Prodrugs: A Strategy to Improve the Profile of Nonsteroidal Anti-Inflammatory Drugs” (Pharmaceuticals, 2022)

Assay: Ex vivo permeation across excised rat small intestine (non-everted intestinal sac)
Format: in vitro ADME, male Wistar rats
Conditions: compound filled into the sac, 5 mg/Kg in PBS + methocel 3%, 37 °C, 2 h; for Fraction Absorbed (Fa) ± SE, Duodenum: rat duodenum; for Fraction Absorbed (Fa) ± SE, Ileum: rat ileum; for Fraction Absorbed (Fa) ± SE, Jejunum: rat jejunum
Protocol: The permeability of the galactosylated prodrugs and the parent drugs through the rat small intestine was assessed ex vivo using the non-everted intestinal sac method. Despite some shortcomings (e.g., the interruption of normal blood flow, lack of a nervous system) this test is widely used to investigate the passive absorption of molecules and can provide further data when equipped with a mucus layer, which includes proteins of drug transport and metabolism.
A suspension of the tested compounds (5 mg/Kg in PBS + methocel 3%) was syringed into intestinal sacs that consisted of different segments of rat small intestine (duodenum, jejunum, ileum). The compound-enriched tissues were incubated at 37 °C for 2 h.
In order to verify the presence of the galactosylated compounds in the intestinal tissues, the intestinal sacs were opened at the end of the incubation period, washed with fresh buffer and homogenized in ethanol and the supernatant was dried. The concentrations of the galactosylated prodrugs and the prodrug-derived parent drugs were quantified using RP-HPLC (Figure 3a–d).
An evaluation of ex vivo absorption was carried out using permeation measurements in excised rat small intestines, as previously published, with some modifications. Briefly, male Wistar rats (200–250 g) were anesthetized with isoflurane, decapitated and exsanguinated. Freshly excised rat duodenum, jejunum and ileum tissue was washed with Krebs–Ringer buffer (KRB) and cut into pieces of 4–5 cm. Then, 0.2 mL of a suspension containing the compounds (5 mg/Kg, PBS + Methocel 3%) were syringed into intestinal sacs and the compound-enriched tissues were incubated in oxygenated KRB (10 mL) at 37 °C with smooth shaking. […] Tests were carried out in triplicate for each compound on three intestinal segments from three different rats. The concentration in the incubation buffer was quantified via RP-HPLC, as reported above.
At the end of the incubation period, the intestinal sacs were opened, washed with fresh buffer, homogenized in ethanol (1 mL, UltraTurrax) and centrifuged at 13,000× g for 5 min and the supernatant was dried with nitrogen. After resolubilization in 0.5 mL of methanol, the concentrations of the galactosylated prodrugs and prodrug-derived parent drugs were quantified using RP-HPLC.

Fraction Absorbed (Fa) ± SE, Duodenum | Fraction Absorbed (Fa) ± SE, Ileum | Fraction Absorbed (Fa) ± SE, Jejunum | Compound
0.060 ± 0.014 | 0.033 ± 0.008 | 0.031 ± 0.015 | CC(C(=O)OC[C@H]1OC(O)[C@H](O)[C@@H](O)[C@H]1O)c1ccc(-c2ccccc2)c(F)c1 (stereo partly drawn) [FluGAL]
0.013 ± 0.006 | 0.031 ± 0.016 | 0.026 ± 0.014 | CC(C)Cc1ccc(C(C)C(=O)OC[C@H]2OC(O)[C@H](O)[C@@H](O)[C@H]2O)cc1 (stereo partly drawn) [IbuGAL]
